Molecules are shown by their SMILES. Some results are limits rather than exact numbers.

One data set has as its target T1, PPARγ-RXRα heterodimer (Homo sapiens, UniProt P19793+P37231).
T1 construct: expressed in transfected cells; host or cells: CHO-K1
T1 sequence (P37231 1-477 isoform P37231-2): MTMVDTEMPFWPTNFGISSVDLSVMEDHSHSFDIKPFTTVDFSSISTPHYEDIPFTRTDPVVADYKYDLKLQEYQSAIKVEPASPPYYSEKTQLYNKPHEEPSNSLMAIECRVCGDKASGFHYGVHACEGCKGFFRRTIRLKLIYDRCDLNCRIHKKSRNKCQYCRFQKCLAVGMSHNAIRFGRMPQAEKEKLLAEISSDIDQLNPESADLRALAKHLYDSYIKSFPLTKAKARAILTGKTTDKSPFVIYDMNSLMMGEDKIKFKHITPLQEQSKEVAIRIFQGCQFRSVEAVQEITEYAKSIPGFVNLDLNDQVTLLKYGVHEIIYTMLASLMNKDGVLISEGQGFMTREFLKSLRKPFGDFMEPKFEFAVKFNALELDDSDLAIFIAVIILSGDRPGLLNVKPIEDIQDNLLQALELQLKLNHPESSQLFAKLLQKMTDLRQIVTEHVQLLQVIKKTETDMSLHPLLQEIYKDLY
T1 sequence (P19793 1-462): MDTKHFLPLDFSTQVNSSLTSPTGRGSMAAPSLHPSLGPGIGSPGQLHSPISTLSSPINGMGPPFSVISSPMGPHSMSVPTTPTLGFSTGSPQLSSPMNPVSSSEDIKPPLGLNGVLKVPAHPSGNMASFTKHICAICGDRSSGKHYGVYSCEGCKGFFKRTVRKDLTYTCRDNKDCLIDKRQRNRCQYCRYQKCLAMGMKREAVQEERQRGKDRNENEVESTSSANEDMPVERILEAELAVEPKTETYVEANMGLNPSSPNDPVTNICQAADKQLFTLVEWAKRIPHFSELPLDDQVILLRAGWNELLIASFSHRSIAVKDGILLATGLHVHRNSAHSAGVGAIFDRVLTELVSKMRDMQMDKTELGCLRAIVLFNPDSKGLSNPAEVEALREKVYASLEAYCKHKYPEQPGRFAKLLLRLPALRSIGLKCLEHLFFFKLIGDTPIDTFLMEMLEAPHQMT
As to the kind of experiment: PPARγ-RXRα heterodimer ligand activity (luciferase reporter in PPARγ:RXRα:4ERPP/CHO-K1 cells). It counts as cell-based. The following applies: luciferase fold induction, 48 hours. How it is done: PPAR γ:RXR α:4ERPP/CHO-K1 cells obtained in Reference Example 5 were cultured in HAM F12 medium (produced by NISSUI SEIYAKU) containing 10% Fetal bovine serum (produced by Life Technologies, Inc., USA) and then inoculated to a 96-well white plate (produced by Corning Costar Corporation, USA) at the density of 2×10^4 cells/well, and cultured in a CO2 gas incubator at 37° C. overnight.
After washing the 96 well white plate with PBS (Phosphate-buffered saline), 90 μl of HAM F12 medium containing 0.1% fatty acid-free bovine serum albumin (BSA) and 10 μl of test compound were added to each well, and the plate was cultured in a CO2 gas incubator at 37° C. for 48 hours. After removing the medium, 40 μl of PIKKAGENE 7.5 (produced by Wako Pure Chemical Industries, Ltd.) was added to the well. After stirring, the luciferase activity was determined using Lumistar (produced by BMG Labtechnologies GmbH, Germany).
A fold induction was calculated based on the luciferase activity of each test compound by estimating the luciferase activity in the non-treatment group as 1. The values of the test compound concentration and the fold induction were used to calculate the EC50 values, the effective concentration of a test compound for 50% of the maximum fold induction, by using PRISM 2.01 (produced by GraphPad Software Inc. USA).
PPARγ:RXRα:4ERPP/CHO-K1 cells obtained in Reference. Example 5 were cultured in HAM F12 medium (produced by NISSUI SEIYAKU) containing 10% Fetal bovine serum (produced by Life Technologies, Inc., USA) and then inoculated to a 96-well white plate (produced by Corning Costar Corporation, USA) at the density of 2×10^4 cells/well, and cultured in a CO2 gas incubator at 37° C. overnight.
After washing the 96 well white plate with PBS (Phosphate-buffered saline), 90 μl of HAM F12 medium containing 0.1% fatty acid-free bovine serum albumin (BSA) and 10 μl of test compound were added to each well, and the plate was cultured in a CO2 gas incubator at 37° C. for 48 hours. After removing the medium, 40 μl of PIKKAGENE 7.5 produced by Wako Pure Chemical Industries, Ltd.) was added to the well. After stirring, the luciferase activity was determined using Lumistar (produced by BMG Labtechnologies Gmbh, Germany).
A fold induction was calculated based on the luciferase activity of each test compound by estimating the luciferase activity in the non-treatment group as 1. The values of the test compound concentration and the fold induction were used to calculate the EC50 values, the effective concentration of a test compound for 50% of the maximum induction, by using PRISM 2.01 (produced by GraphPad Software Inc. USA). The results are shown in [Table 1].

A word on the EC50: it is the concentration that produces a half-maximal response. As to `O=C(O)c1ccc(-c2nc(-c3ccc(Cl)cc3)co2)cc1` [Example 8, 4-[4-(4-chlorophenyl)-2-oxazolyl]benzoic acid], the EC50 on PPARγ-RXRα heterodimer was 0.092 µM. Regarding `CCOc1ccc(-c2csc(-c3cccc(C(=O)O)c3)n2)cc1` [Example 96, 3-[4-(4-ethoxyphenyl)-2-thiazolyl]benzoic acid], it took 0.0019 µM to reach a half-maximal effect at PPARγ-RXRα heterodimer (EC50). The term melting point denotes the temperature, or range, at which the solid turns liquid. Take `O=C(O)c1cccc(-c2nc(-c3cc(Cl)sc3Cl)cs2)c1` [Example 95, 3-[4-(2,5-dichloro-3-thienyl)-2-thiazolyl]benzoic acid]: the melting point was 241 to 242 °C. The same compound showed an EC50 at PPARγ-RXRα heterodimer of 0.1 µM. The compound `CC(C)c1ccc(-c2csc(-c3cccc(C(=O)O)c3)n2)cc1` [Example 100, 3-[4-(4-isopropylphenyl)-2-thiazolyl]benzoic acid] showed a melting point of 214 to 215 °C. At PPARγ-RXRα heterodimer, the concentration for a half-maximal effect (EC50) is 0.0051 µM.

Take `O=C(O)c1ccc(-c2nc(-c3cc(C(F)(F)F)cc(C(F)(F)F)c3)co2)cc1` [Example 23, 4-[4-[3,5-bis(trifluoromethyl)phenyl)-2-oxazolyl]benzoic acid]: the melting point lay within 277 to 279 °C. Turning to `COC(=O)c1ccc(-c2nc(-c3ccc(Br)cc3)cs2)cc1` [Example 75, methyl 4-[4-(4-bromophenyl)-2-thiazolyl]benzoate], the melting point lay in the range of 206 to 207 °C. Compound `COC(=O)c1ccc(-c2nc(-c3ccc(Cl)s3)co2)cc1` [Example 7, methyl 4-[4-(5-chloro-2-thienyl)-2-oxazolyl]benzoate] came in with a melting point of 189 to 190 °C.

Compound `O=C(O)c1ccc(-c2nc(-c3ccc(OC(F)F)cc3)co2)cc1` [Example 24, 4-[4-(4-difluoromethoxylphenyl)-2-oxazolyl]benzoic acid] yielded a melting point of 261 to 262 °C.

`CC(C)c1ccc(-c2csc(-c3ccc(C(=O)O)cc3)n2)cc1` [Example 101, 4-[4-(4-isopropylphenyl)-2-thiazolyl]benzoic acid] came in with a melting point of 257 to 258 °C. On the same count and under the same terms, the value for `O=C(O)c1ccc(-c2nc(-c3ccc(Cl)s3)co2)cc1` [Example 14, 4-[4-(5-chloro-2-thienyl)-2-oxazolyl]benzoic acid] was not below 300 °C. `O=C(O)c1ccc(-c2coc(-c3ccc(Cl)cc3)n2)cc1` [Example 13, 4-[2-(4-chlorophenyl)-4-oxazolyl]benzoic acid] came in with a melting point of 288 to 289 °C. `O=C(O)c1ccc(-c2nc(-c3ccc(Cl)s3)cs2)cc1` [Example 53, 4-[4-(5-chloro-2-thienyl)-2-thiazolyl]benzoic acid] displayed a melting point of 283 to 284 °C. `O=C(O)c1cccc(-c2nc(-c3ccc(Cl)cc3)cs2)c1` [compound 12, 3-[4-(4-chlorophenyl)-2-thiazolyl]benzoic acid] displayed a melting point of 265 to 266 °C. `COC(=O)c1ccc(-c2nc(-c3cccc(OC(F)(F)F)c3)cs2)cc1` [Example 40, methyl 4-[4-(3-trifluoromethoxyphenyl)-2-thiazolyl]benzoate] came in with a melting point of 132 to 134 °C.

`CC(C)(C)c1ccc(-c2csc(-c3cccc(C(=O)O)c3)n2)cc1` [Example 98, 3-[4-(4-t-butylphenyl)-2-thiazolyl]benzoic acid] returned a melting point of 250 to 251 °C. In turn, `O=C(O)c1ccc(-c2nc(-c3ccc(Br)cc3)cs2)cc1` [Example 89, 4-[4-(4-bromophenyl)-2-thiazolyl]benzoic acid] came in with a melting point of more than 300 °C. The compound `O=C(O)c1ccc(-c2csc(-c3ccccc3)n2)cc1` [Reference Example 9, 4-(2-phenyl-4-thiazolyl]benzoic acid] returned a melting point of 245 to 248 °C. On to `COC(=O)c1ccc(-c2nc(-c3ccc(C(F)(F)F)cc3)co2)cc1` [Example 2, methyl 4-[4-(4-trifluoromethylphenyl)-2-oxazolyl]benzoate], for which the melting point lay in the range of 182 to 183 °C.

In turn, `CCCCc1ccc(-c2csc(-c3ccc(C(=O)O)cc3)n2)cc1` [Example 99, 4-[4-(4-butylphenyl)-2-thiazolyl]benzoic acid] came in with a melting point of 263 to 265 °C. Regarding `CCOC(=O)c1ccc(-c2csc(-c3ccc(Cl)cc3)n2)cc1` [Example 103, ethyl 4-[2-(4-chlorophenyl)-4-thiazolyl)benzoate], the melting point lay within 105 to 106 °C. In turn, `CCOC(=O)c1cccc(-c2nc(-c3ccc(C(C)C)cc3)cs2)c1` [Example 86, ethyl 3-[4-(4-isopropylphenyl)-2-thiazolyl]benzoate] showed a melting point of 91 to 92 °C. For the compound `COC(=O)c1ccc(-c2nc(-c3ccc(OC(F)F)cc3)co2)cc1` [Example 18, methyl 4-[4-(4-difluoromethoxylphenyl)-2-oxazolyl]benzoate], the melting point is 160 to 161 °C. As to `COC(=O)c1ccc(-c2nc(-c3cccc(Cl)c3)cs2)cc1` [Example 43, methyl 4-[4-(3-chlorophenyl)-2-thiazolyl]benzoate], the melting point is 150 to 151 °C. Regarding `O=C(O)c1ccc(-c2nc(-c3ccncc3)cs2)cc1` [Example 58, 4-[4-(4-pyridyl)-2-thiazolyl]benzoic acid], the melting point was more than 300 °C.

`O=C(O)c1cccc(-c2nc(-c3ccc(F)c(F)c3)cs2)c1` [Example 71, 3-[4-(3,4-difluorophenyl)-2-thiazolyl]benzoic acid] came in with a melting point of 255 to 256 °C. Consider `Br.CCOC(=O)c1ccc(-c2csc(-c3ccncc3)n2)cc1` [Example 36, ethyl 4-[2-(4-pyridyl)-4-thiazolyl]benzoate hydrobromide], for which the melting point lay within 248 to 250 °C. Same read-out and setting: the same measure for `CCOC(=O)c1ccc(-c2csc(-c3ccc(C(F)(F)F)cc3)n2)cc1` [Example 104, ethyl 4-[2-(4-trifluoromethylphenyl)-4-thiazolyl)benzoate]: 163 to 164 °C; for `COC(=O)c1ccc(-c2nc(-c3cccc(C(F)(F)F)c3)co2)cc1` [Example 16, methyl 4-[4-(3-trifluoromethylphenyl)-2-oxazolyl]benzoate]: 134 to 135 °C; for `O=C(O)c1ccc(-c2nc(-c3cc(Cl)sc3Cl)cs2)cc1` [Example 94, 4-[4-(2,5-dichloro-3-thienyl)-2-thiazolyl]benzoic acid]: 266 to 267 °C. `Br.COC(=O)c1ccc(-c2nc(-c3ccccn3)cs2)cc1` [Example 38, methyl 4-[4-(2-pyridyl)-2-thiazolyl]benzoate hydrobromide] yielded a melting point of 243 to 244 °C. For the compound `O=C(O)c1ccc(-c2nc(-c3cccnc3)cs2)cc1` [Example 57, 4-[4-(3-pyridyl)-2-thiazolyl]benzoic acid], the melting point was in the range of 303 to 304 °C. Take `O=C(O)c1ccc(-c2cnc(-c3ccc(Cl)cc3)o2)cc1` [compound 13, 4-[2-(4-chlorophenyl)-5-oxazolyl]benzoic acid]: the melting point was in the range of 268 to 270 °C.

Values taken from US6545009B1, “Retinoid-related receptor function regulating agent” (Takeda Chemical Industries, Ltd., priority 1998, dated 2003).
